Key:
[1] = test system: IL-10; experiment: LPS mouse assay, serum IL-10 by ELISA; format: in vivo, Balb C ByJ mice; conditions: i.p. or oral 30 minutes before 1 mg/kg LPS i.p., serum 2 hours after LPS
Method: (§1) 7 week old Balb C ByJ mice (24-28 g) were administered, either by i.p. (5 ml/kg) or oral (10 ml/kg) administration, with vehicle or test article. 30 minutes later these animals were challenged with an intraperitoneal injection of 1 mg/kg LPS. 2 hours after LPS challenge blood samples were collected under light isoflurane anaesthesia into normal tubes by retro-orbital puncture. Samples were allowed to clot at room temperature and then spun at 6000 g for 3 min at 4° C. Serum was stored at −20° C. until use. Serum TNFα and IL-10 levels were analysed in duplicate by ELISA technique.

[2] = test system: TNFα; experiment: LPS mouse assay, serum TNFα by ELISA; format: in vivo, Balb C ByJ mice; conditions: i.p. or oral 30 minutes before 1 mg/kg LPS i.p., serum 2 hours after LPS
Method: as §1

[3] = test system: male Wistar rats; experiment: Carrageenan paw assay; format: in vivo; conditions: rat
Method: Fasted (18 hour) male Wistar rats (105-130 g) were weighed and a basal mercury plethysmometer reading was taken of the right hind paw by submerging the paw in the mercury up to the tibiotarsal joint. Subsequently, vehicles, reference items and test articles were administered by oral gavage (10 ml/kg). Half an hour after treatment, 0.1 ml of 2% carrageenan in 0.9% saline was injected into the subplanatar area of the right hind paw. The right paw was measured again with the plethysmometer at 1, 2, 3, 4 and 5 hours after carrageenan administration.

Row | SMILES | IL-10 production potentiated ([1]; 10 mg/kg) | IL-10 production potentiated ([1]; 30 mg/kg) | inhibition of TNFα production ([2]; 10 mg/kg) | inhibition of TNFα production ([2]; 30 mg/kg) | other results
1 | CC(C)(CO)NCC(O)c1cc(Cl)c(N)c(Cl)c1 (racemic) [Example 1, 2-[2-(4-amino-3,5-dichlorophenyl)-2-hydroxyethylamino]-2-methylpropan-1-ol] | 417% | 392% | 60% | 61% | 
2 | CC(C)(CO)NCC(O)c1cc(Cl)c(N)c(Cl)c1 (single isomer, unassigned) [2-[2-(4-amino-3,5-dichlorophenyl)-2-hydroxyethylamino]-2-methylpropan-1-ol] |  |  |  |  | inhibition in the carageenan paw assay ([3]; 0.3 mg/kg oral gavage): 18%; inhibition in the carageenan paw assay ([3]; 1 mg/kg oral gavage): 28%; inhibition in the carageenan paw assay ([3]; 3 mg/kg oral gavage): 26%; inhibition in the carageenan paw assay ([3]; 10 mg/kg oral gavage): 59%; inhibition in the carageenan paw assay ([3]; 30 mg/kg oral gavage): 71%; anti-inflammatory dose response in the carageenan paw assay ([3]; 0.3 to 30 mg/kg oral gavage): clear anti-inflammatory dose response curve
3 | CC(C)(CO)NCC(O)c1ccccc1 (stereo not shown) [Example 2, 2-(2-phenyl-2-hydroxyethylamino)-2-methyl-propan-1-ol] | 345% | 366% | 47% | 58% | 
4 | CC(C)(CO)NCC(O)c1ccc(F)cc1 (stereo not shown) [Example 3, 2-[2-(4-fluorophenyl)-2-hydroxyethylamino]-2-methylpropan-1-ol] | 106% | 125% | 37% | 37% | 
5 | CC(C)Cc1ccc(C(C)C(=O)O)cc1 (stereo not shown) [Ibuprofen, reference compound] |  |  |  |  | anti-inflammatory in the carageenan paw assay ([3]; 100 mg/kg oral gavage): 38%
